# In US20040166575A1, “Inosine producing bacterium belonging to the genus Bacillus and method for producing inosine” (priority 2003, published 2004):
# Several values for one entry are separate records, joined by “and”; a condition that tells them apart may be missing. Identical values can stand only once.
# Legend:
# [1] = tested on: 6-ethoxypurine-resistant strain EP1 (AJ13937); assay: Assay for degree of 6-ethoxypurine resistance: colony growth on minimal medium plate, EP1 strain; assay type: cell-based, Bacillus subtilis; settings: for Relative growth degree / Diameter of colony: EP1; for Relative growth degree: colony diameter with 2000 mg/L 6-ethoxypurine / without ×100; for Diameter of colony: minimal medium plate containing 6-ethoxypurine (2000 μg/mL)
# [2] = tested on: 6-ethoxypurine-resistant strain EP2; assay: Assay for degree of 6-ethoxypurine resistance: colony growth on minimal medium plate, EP2 strain; assay type: cell-based, Bacillus subtilis; settings: for Relative growth degree / Diameter of colony: EP2; for Relative growth degree: colony diameter with 2000 mg/L 6-ethoxypurine / without ×100; for Diameter of colony: minimal medium plate containing 6-ethoxypurine (2000 μg/mL)
# Procedure: Relative growth degree (%)=[colony diameter (mm) observed in the medium containing 6-ethoxypurine]/[colony diameter (mm) observed in the medium not containing 6-ethoxypurine]×100
# The Bacillus subtilis recombinant strain KMBS16 deficient in the purine operon repressor gene (purR), succinyl-AMP synthase gene (purA) and purine nucleoside phosphorylase gene (deoD) was treated with 400 μg/ml of nitrosoguanidine (NTG) at 37° C. for 30 minutes. Then, the NTG-treated cell suspension was spread on a minimal medium (20 g/L of glucose, 5 g/L of ammonium chloride, 4 g/L of potassium dihydrogenphosphate, 0.01 g/L of ferrous sulfate, 0.01 g/L of manganese sulfate, 0.5 g/L of sodium citrate, 1.0 g/L of L-glutamic acid, 0.1 g/L of adenine, 50 mg/L of tryptophan, pH 7.0) plate containing 2000 mg/L of 6-ethoxypurine, and the cells were cultured at 37° C. for 24 hours. […] The EP1 strain was given a private number of AJ13937. This strain was deposited at the independent administrative agency, National Institute of Advanced Industrial Science and Technology, International Patent Organism Depositary (Tsukuba Central 6, 1-1, Higashi 1-Chome, Tsukuba-shi, Ibaraki-ken, 305-8566, Japan) on Dec. 25, 2001 and received an accession number of FERM P-18665. Then, it was transferred to an international deposit under the provisions of the Budapest Treaty on Jan. 14, 2004, and received an accession number of FERM BP-08595.
# Degree of 6-ethoxypurine resistance of the mutant strain obtained as described above was examined in detail. The parent strain and the mutant strain were adenine auxotrophic, and the drug used was a purine analogue. Therefore, the amount of adenine added to the minimal medium was limited to the required minimum level (2 mg/L in this example).
# The 6-ethoxypurine-resistant strains (EP1 strain and EP2 strain) and the parent strain KMBS16 were each inoculated into the minimum liquid medium and cultured overnight at 34° C. The cells were separated from the culture broth by centrifugation, washed three times with the minimal medium and suspended again in the same medium. The suspension was appropriately diluted with the same medium and spread on a minimal medium plate and a minimal medium plate containing 2000 mg/L of 6-ethoxypurine, and the cells were cultured at 34° C. […] The culture was continued even thereafter, and diameters of several single colonies were measured after […] to 66 hours. An average of colony diameters was calculated for each strain, and the relative growth degree was calculated according to the aforementioned equation.
# In the tables, the symbol “−” means that no colony could be confirmed, and the symbol “±” means that since the colonies were indefinite, the diameters could not be measured.
# [3] = tested on: Bacillus subtilis recombinant strain KMBS16 (purR, purA, deoD deficient); assay: Assay for degree of 6-ethoxypurine resistance: colony growth on minimal medium plate, parent strain; assay type: cell-based; settings: for Relative growth degree / Diameter of colony: KMBS16; for Relative growth degree: colony diameter with 2000 mg/L 6-ethoxypurine / without ×100; for Diameter of colony: minimal medium plate containing 6-ethoxypurine (2000 μg/mL)
compound,measurement,setting,value
CCOc1ncnc2nc[nH]c12 [6-ethoxypurine],Relative growth degree,[1]; 0 hr,0%
same,Relative growth degree,[1]; 42 hr,80.0% and 100.0%
same,Relative growth degree,[1]; 45 hr,83.3%
same,Relative growth degree,[1]; 48 hr,80.0%
same,Relative growth degree,[1]; 52 hr,100.0%
same,Diameter of colony,"[1]; 34° C., 28 hr",±
same,Diameter of colony,"[1]; 34° C., 42 hr",1.00 mm and 0.80 mm
same,Diameter of colony,"[1]; 34° C., 45 hr",1.20 mm and 1.00 mm
same,Diameter of colony,"[1]; 34° C., 48 hr",1.50 mm and 1.20 mm
same,Diameter of colony,"[1]; 34° C., 52 hr",1.50 mm
same,Diameter of colony,"[1]; 34° C., 66 hr",2.00 mm and 2.50 mm
same,colony formation after 24 hours,"[1]; EP1 strain, minimal medium plate containing 2000 mg/L of 6-ethoxypurine, 34° C., 24 hours",minute colonies were confirmed
same,Relative growth degree,[2]; 0 hr,0%
same,Relative growth degree,[2]; 42 hr,100.0%
same,Diameter of colony,"[2]; 34° C., 28 hr",±
same,Diameter of colony,"[2]; 34° C., 42 hr",1.00 mm
same,Diameter of colony,"[2]; 34° C., 45 hr",1.20 mm
same,Diameter of colony,"[2]; 34° C., 48 hr",1.50 mm
same,Diameter of colony,"[2]; 34° C., 52 hr",1.50 mm
same,Diameter of colony,"[2]; 34° C., 66 hr",2.00 mm
same,colony formation after 24 hours,"[2]; EP2 strain, minimal medium plate containing 2000 mg/L of 6-ethoxypurine, 34° C., 24 hours",minute colonies were confirmed
same,Relative growth degree,[3]; 0 hr,0%
same,Relative growth degree,[3]; 42 hr,50.0% and 40.0%
same,Relative growth degree,[3]; 45 hr,58.3% and 41.7%
same,Relative growth degree,[3]; 48 hr,66.7% and 50.0%
same,Relative growth degree,[3]; 52 hr,66.7%
same,Relative growth degree,[3]; 66 hr,62.5% and 50.0%
same,Diameter of colony,"[3]; 34° C., 28 hr",−
same,Diameter of colony,"[3]; 34° C., 42 hr",0.50 mm and 0.40 mm
same,Diameter of colony,"[3]; 34° C., 45 hr",0.70 mm and 0.50 mm
same,Diameter of colony,"[3]; 34° C., 48 hr",1.00 mm and 0.75 mm
same,Diameter of colony,"[3]; 34° C., 52 hr",1.00 mm
same,Diameter of colony,"[3]; 34° C., 66 hr",1.25 mm and 1.00 mm
same,colony formation after 24 hours,"[3]; parent strain KMBS16, minimal medium plate containing 2000 mg/L of 6-ethoxypurine, 34° C., 24 hours",no colony was confirmed
